The subject of assay [1] is mechanical allodynia after L5 spinal nerve ligation. The assay can be described thus: Chung Model (spinal nerve ligation) antiallodynic effect. The format is in vivo. Particulars: po; rat, orally administered. The source says: Procedure for Testing Antiallodynic Effect
The procedure used to detect the antiallodynic effect of a compound of the present invention for which there is a good correlation with human efficacy for the treatment of pain is the procedure for the measurement of allodynia found in the Chung Model (Kim S. H. and Chung J. M., An Experimental Model for Peripheral Neuropathy Produced by Segmental Spinal Nerve Ligation in the Rat, Pain, 1992, 50, 355-363). The antiallodynic effect of the composition of the present invention in the Chung Model is expressed in % MPE (Maximum Possible Effect).
Male Sprague-Dawley rats, weighing approximately 200 g each were anesthetized with isoflurane. The spinal nerve at the level of L5 was exposed through an incision just left of the dorsal midline and tightly ligated with 6-0 silk. At various times after surgery, animals were tested for mechanical allodynia with von Frey hairs (monofilaments which are calibrated to bend under a certain amount of pressure, ranging from 0.41 to 15.1 g). In order to calculate a paw withdrawal threshold (PWT), tactile allodynia was measured by recording the pressure at which the affected paw was withdrawn from graded stimuli according to the procedure of S. R. Chaplan, J. W. Pogrel, T. L. Yaksh, Role of Voltage-Dependent Calcium Channel Subtypes in Experimental Tactile Allodynia, J. Pharmacol. Exp. Ther., 1994, 269, 1117-1123. Normal rats can withstand at least 15 g of pressure without responding. Operated rats, however, can respond to as little as 0.25 g of pressure. The surgery was deemed successful if the animal responded with a PWT of less than 4 g of pressure applied to the affected paw. […] The PWT was used to calculate the % maximal possible effect (% MPE) according to the formula: %MPE=100×[(PWT−CT)/(CO−CT)]; wherein PWT is defined as Paw Withdrawal Threshold, CT is Control Threshold, and CO is Cut Off (defined as 15 g).
The sham operation consisted of a similar surgery; the spinal nerve was visualized without being ligated.
Compounds selected from Formula (I) and Formula (II) were tested for activity in treating or modulating neuropathic pain by being dissolved or suspended in either water or hydroxypropyl methylcellulose, respectively. Postoperative animals between 14 to 42 days were fasted overnight prior to dosing. Animals were orally dosed and dosage volumes were calculated on a 4 mL/kg basis.

The subject of assay [2] is maximal electroshock extensor seizure. The assay can be described thus: Mouse maximal electroshock test (MES) anticonvulsant model. The format is in vivo. Particulars: po, orally administered, read-out: MES Response ED50. On the procedure: Procedure for Testing in Mouse Anticonvulsant Model
The activity of the present compounds as anticonvulsant agents was determined using a standard mouse “maximal electroshock test” (MES). In this test, activity was indicated by a block of the […] extensor seizure, as described by Swinyard, et al. (J. Pharmacol. Exptl. Therap., 1952, 106, 319). A more recent description of current anticonvulsant drug screening is given in Swinyard, et al., in Epilepsia, 1978, 19, 409.
The anticonvulsant activity of the instant compounds is shown in Table 5 and was evaluated according to the Swinyard (1952) method. The abbreviations used in the table have the following meanings: mpk refers to the dose orally administered in “mg per Kg;” and, ED50 refers to the “50% Effective Dose” orally administered in mpk. The values marked by an * represent the number of mice protected/number of mice tested; therefore, a value of 3/3 represents that the number of mice protected matched the number of mice tested at the indicated dose.

For assay [3], the system named is voltage-gated sodium channels. In words: Fluorometric membrane potential assay in SK-N-SH cells (veratridine stimulus, FLIPR). The assay is classed as cell-based. Particulars: 10 μM compound, 5 μM veratridine. On the procedure: Screening Assay for Voltage-Gated Sodium Channel Antagonists Fluorometric Membrane Potential Assay
SK-N-SH neuroblastoma cells were maintained in a propagation medium containing modified Eagle's medium and 10% (v/v) fetal bovine serum and were incubated at 37° C. in a 5% CO2 atmosphere. Only cells with fewer than 20 passages were used in each assay. All drugs were prepared in DMSO, and the final concentration of solvent was less than 0.1% (v/v). Veratridine, a toxin that selectively promotes persistent activation of voltage-gated sodium channels, served as the stimulus. 24 hr prior to testing, 1×10^5 cells/well were plated into 96-well plates specifically designed for use in a fluorescent imaging plate reader (FLIPR) (Molecular Devices, Sunnyvale, Calif.)
Prior to screening, monolayers of cells were loaded with 100 μL/well of a proprietary voltage-sensitive dye (Molecular Devices, Sunnyvale, Calif.) for 30 min at 37° C. After this incubation period, the cells were stimulated with 5 μM veratridine in the presence or absence of investigational compounds (prepared at a final concentration of 10 μM in DMSO). A sample containing 5 μM veratridine and 10 μM tetrodotoxin accounted for nonspecific activity. The fluorescence was monitored by the FLIPR (Molecular Devices) from 10 sec prior to drug addition (50 μL) to 170 sec after drug addition at 25° C. During sodium channel activation, the cells depolarize and the dye associates with cell membranes, resulting in increased fluorescence.

The subject of assay [4] is voltage-gated sodium channels. The assay can be described thus: [14C]guanidinium flux assay in SK-N-SH cells (veratridine stimulus). The assay is classed as cell-based. Particulars: 10 μM compound, 100 μM veratridine. On the procedure: Screening Assay for Voltage-Gated Sodium Channel Antagonists [^14C] Guanidinium Flux Assay
SK-N-SH neuroblastoma cells were maintained in a propagation medium containing modified Eagle's medium and 10% (v/v) fetal bovine serum and were incubated at 37° C. in a 5% CO2 atmosphere. Only cells with fewer than 20 passages were used in each assay. All drugs were prepared in DMSO, and the final concentration of solvent was less than 0.1% (v/v). Veratridine, a toxin that selectively promotes persistent activation of voltage-gated sodium channels, served as the stimulus.
SK-N-SH cells were plated at 1×10^5 cells/well in 96-well Cytostar-T microscintillating plates in propagation medium and experiments were performed 6-7 days after plating. Prior to assay, the SK-N-SH cells were washed twice with assay buffer containing 50 mM HEPES (pH 7.45), 5.4 mM potassium chloride, 0.8 mM magnesium chloride, 130 mM choline chloride, 5.5 mM glucose and 0.1 mg/mL bovine serum albumin. Next, the plates were allowed to equilibrate for 10 min at 37° C. in assay buffer. After this incubation period, the cells were stimulated with 100 μM veratridine in the presence or absence of investigational compounds prepared in a 96-well plate (prepared at a final concentration of 10 μM in DMSO). The 96-well dosing plate was prepared by mixing 25 μL of a drug/assay buffer solution per well with 25 μL of 0.7 μCi/mL [^14C]guanidine hydrochloride in assay buffer. 50 μL aliquots from the dosing plate were then added to the cells. One sample containing 100 μM veratridine and 10 μM tetrodotoxin accounted for nonspecific activity. The plates were incubated for 1 hr at room temperature and the radioactivity was counted in a 1450 Microbeta scintillation counter.

The values below come from patent US6897319B2, “Useful aroyl pyrrole heteroaryl methanones and methanols” (Ortho-McNeil Pharmaceutical, Inc., priority 2001, dated 2005).

SMILES strings stand for the structures.

As for `Cn1cc(C(=O)c2ccncc2)cc1C(=O)c1ccc(Cl)cc1` [Cpd 1, [5-(4-Chlorobenzoyl)-1-methyl-1H-pyrrol-3-yl]pyridin-4-ylmethanone], the ED50 is 22 mg/kg in assay [1] and 157 mg/kg in assay [2]. Moreover, the “% FI at 10 μM (% fluorescence inhibition)” value in assay [3] worked out at 32%. Also, the “% GFI at 10 μM (% guanidinium flux inhibition)” value in assay [4] turned out to be 23%.
